pEC50: −log10 of the molar value. Read-outs that look alike come from different tables or passages of the source.
Tested on: PopE F8 M-833 resistant clone (PfSTART1 N330K)
Assay: Growth inhibition assay (72 h, LDH activity)
Type: cell-based, Plasmodium falciparum
Method: The drug was then removed, and parasites were allowed to recover. Another cycle of drug treatment (3 μM M-833) was then resumed. The resistant lines were cloned out by limiting dilution (diluting the culture into a 96-well plate to achieve an average of ~0.3 parasites per well), prior to growth inhibition assays and genomic DNA (gDNA) extraction (DNeasy Blood and Tissue kit (Qiagen)[18].
Parasite growth assays with inhibitory compounds were performed as per[11] and are fully described in the Supplementary Information.
Molecular biology and transfection of P. falciparum: CRISPR method.
The full 5’ homology region of pfstart1 (either WT, N309K or N330K) was amplified from pPfSTART1-HA-2A-Neo-glmS with the same 5’ BglII primer and a new 3’ primer that replaced with PstI with SpeI and introduced a stop codon. The PCR product was then digested with BglII and SpeI and inserted into similarly digested p1.2 parasite vector2. The p1.2 vector had previously been inserted with a homology region amplified from the 3’ end of the pfstart1 gene (3’HB) to form a second homology block for double recombination. The primers used to amplify 3’HB are listed primers listed in […]
60 μg of p1.2-PfSTART1(WT/N309K/N330K) plasmid was linearised with KasI, precipitated in 3 M sodium acetate and ethanol (70% final concentration) overnight at -20°C. The DNA pellet was washed in cold 70% ethanol and resuspended in cytomix 3.
50 μ M of crRNA ( Table S 2) and 50 μM of tracRNA (Integrated DNA Technologies) were allowed to form a duplex (5 min at 95°C), and Cas9 enzyme (Integrated DNA Technologies) was added, and incubated for 20 min at room temperature 4. This crRNA -tracRNA -Cas9 mix was added to each DNA preparation and transfected to 3D7 ring parasites using the Bio -Rad Gene Pulser at 310 V and 950 μF.
Parasites containing the transfected DNA were selected using 2.5 nM WR99210 (Jacobus). Parasites lines were cloned using limiting dilution. Correct integration was tested by PCR (using primer START_5’UTR.F and START_Int.R1 , Table S 2), and sequencing was done using the primers START_3F and START_Int.R2 (Table S 2).
Growth inhibition assays. Synchronised ring-stage parasites (0.3-0.6% parasitemia, 2% haematocrit) were grown for 72 h in a serial-dilution of the compound under […]
and compound 4. Note that M-833 was first purchased from MolPort (MolPort -002-267-916) then made in-house at WEHI: the differences observed in EC50s across experiments are attributed to the different batches of M -833. For some experiments, 0, 0.25 or 2.5 mM of glucosamine (GlcN) was also added. Experiments were set up in technical duplicates or triplicates. Following a freeze -thaw cycle, lactate dehydrogenase (LDH) activity was assessed as an indicator of parasite growt h 5. 30 μL of parasite culture was incubated for 30 min in the dark with 75 μL Malstat mixture (0.1 M Tris pH 9.0, 20 g/L lactic acid, pH 7.5, 0.2% Triton-X100, 0.5 g/L acetylpyridine adenine dinucleotide (APAD, Sigma), 200 μg/mL nitroblue tetrazolium (NBT; Sigma), 1 μg/mL phenozine ethosulfate (PES; Sigma)). Absorbance was then measured at 650 nm, transformed using the formula below, plotted against the logarithm of the concentrations, and a non-linear regression (log(inhibitor) vs. response, variable slope) was calculated using GraphPad Prism to assess the half-inhibitory […]
Growth inhibition % = (1 − average(sample)− average(uRBC)) ∗ 100 […]
The DMSO samples were also used to assess growth of parasite in the presence of 0.25 and 2.5 mM GlcN (normalised by DMSO in 0 mM GlcN).
Egress, invasion & recovery assay. To measure egress, invasion and follow up recovery in the presence of different compounds, we adapted the method developed in6, using Hyp1-Nluc parasites7. These parasites episomally express the exported PEXEL protein Hyp1 (PF3D7_0113300) tagged with a NanoLuc luciferase (NLuc) and were selected with 2.5 nM WR99210 (Jacobus). Highly synchronised schizonts were […]

With `Cc1cc(Cl)c(S(=O)(=O)N2CCCC2)cc1OCC(=O)NC1CCCCC1` [M-833] the “Normalised to DMSO” value (M-833 0.0390625 uM, Pop E-F8 replicate 1) was 109.671, the “Normalised to DMSO” value (M-833 0.0390625 uM, PopE-F8 replicate 3) was 109.081 and the “Normalised to DMSO” value (M-833 0.078125 uM, Pop E-F8 replicate 1) was 111.583. For the same compound, the “Normalised to DMSO” value (M-833 0.078125 uM, PopE-F8 replicate 3) was 106.576, the “Normalised to DMSO” value (M-833 0.15625 uM, Pop E-F8 replicate 1) was 105.619 and the “Normalised to DMSO” value (M-833 0.15625 uM, PopE-F8 replicate 3) was 106.576. For the same compound, the “Normalised to DMSO” value (M-833 0.3125 uM, Pop E-F8 replicate 1) was 109.939, the “Normalised to DMSO” value (M-833 0.3125 uM, PopE-F8 replicate 3) was 106.263 and the “Normalised to DMSO” value (M-833 0.625 uM, Pop E-F8 replicate 1) was 106.384. The “Normalised to DMSO” value (M-833 0.625 uM, PopE-F8 replicate 3) was 108.612, the “Normalised to DMSO” value (M-833 1.25 uM, Pop E-F8 replicate 1) was 102.255 and the “Normalised to DMSO” value (M-833 1.25 uM, PopE-F8 replicate 3) was 105.48. For the same compound, the “Normalised to DMSO” value (M-833 2.5 uM, Pop E-F8 replicate 1) was 99.4266, the “Normalised to DMSO” value (M-833 2.5 uM, PopE-F8 replicate 3) was 94.0501 and the “Normalised to DMSO” value (M-833 5 uM, Pop E-F8 replicate 1) was 83.5245. The “Normalised to DMSO” value (M-833 5 uM, PopE-F8 replicate 3) was 74.6347, the “Normalised to DMSO” value (M-833 10 uM, Pop E-F8 replicate 1) was 58.7156 and the “Normalised to DMSO” value (M-833 10 uM, PopE-F8 replicate 3) was 75.7307. For the same compound, the inhibition at 0.0390625 µM (Plasmodium falciparum, M-833 0.0390625 uM, Pop E-F8 replicate 1, read-out: % Inhibition) was -9.67%, the inhibition at 0.0390625 µM (Plasmodium falciparum, M-833 0.0390625 uM, PopE-F8 replicate 3, read-out: % Inhibition) was -9.08% and the inhibition at 0.078125 µM (Plasmodium falciparum, M-833 0.078125 uM, Pop E-F8 replicate 1, read-out: % Inhibition) was -11.6%. It also gave an inhibition at 0.078125 µM (Plasmodium falciparum, M-833 0.078125 uM, PopE-F8 replicate 3, read-out: % Inhibition) of -6.58%, an inhibition at 0.15625 µM (Plasmodium falciparum, M-833 0.15625 uM, Pop E-F8 replicate 1, read-out: % Inhibition) of -5.62% and an inhibition at 0.15625 µM (Plasmodium falciparum, M-833 0.15625 uM, PopE-F8 replicate 3, read-out: % Inhibition) of -6.58%. The inhibition at 0.3125 µM (Plasmodium falciparum, M-833 0.3125 uM, Pop E-F8 replicate 1, read-out: % Inhibition) was -9.94%, the inhibition at 0.3125 µM (Plasmodium falciparum, M-833 0.3125 uM, PopE-F8 replicate 3, read-out: % Inhibition) was -6.26% and the inhibition at 0.625 µM (Plasmodium falciparum, M-833 0.625 uM, Pop E-F8 replicate 1, read-out: % Inhibition) was -6.38%. For the same compound, the inhibition at 0.625 µM (Plasmodium falciparum, M-833 0.625 uM, PopE-F8 replicate 3, read-out: % Inhibition) was -8.61%, the inhibition at 1.25 µM (Plasmodium falciparum, M-833 1.25 uM, Pop E-F8 replicate 1, read-out: % Inhibition) was -2.26% and the inhibition at 1.25 µM (Plasmodium falciparum, M-833 1.25 uM, PopE-F8 replicate 3, read-out: % Inhibition) was -5.48%. The inhibition at 2.5 µM (Plasmodium falciparum, M-833 2.5 uM, Pop E-F8 replicate 1, read-out: % Inhibition) was 0.573%, the inhibition at 2.5 µM (Plasmodium falciparum, M-833 2.5 uM, PopE-F8 replicate 3, read-out: % Inhibition) was 5.95% and the inhibition at 5 µM (Plasmodium falciparum, M-833 5 uM, Pop E-F8 replicate 1, read-out: % Inhibition) was 16.5%. For the same compound, the inhibition at 5 µM (Plasmodium falciparum, M-833 5 uM, PopE-F8 replicate 3, read-out: % Inhibition) was 25.4%, the inhibition at 10 µM (Plasmodium falciparum, M-833 10 uM, Pop E-F8 replicate 1, read-out: % Inhibition) was 41.3% and the inhibition at 10 µM (Plasmodium falciparum, M-833 10 uM, PopE-F8 replicate 3, read-out: % Inhibition) was 24.3%. The inhibition at 0.0390625 µM (Plasmodium falciparum, Pop E-F8 replicate 1, M-833 0.0390625 uM) was -1.3%, the inhibition at 0.078125 µM (Plasmodium falciparum, Pop E-F8 replicate 1, M-833 0.078125 uM) was -1.67% and the inhibition at 0.15625 µM (Plasmodium falciparum, Pop E-F8 replicate 1, M-833 0.15625 uM) was 1.93%. For the same compound, the inhibition at 0.3125 µM (Plasmodium falciparum, Pop E-F8 replicate 1, M-833 0.3125 uM) was 3.08%, the inhibition at 0.625 µM (Plasmodium falciparum, Pop E-F8 replicate 1, M-833 0.625 uM) was 3.36% and the inhibition at 1.25 µM (Plasmodium falciparum, Pop E-F8 replicate 1, M-833 1.25 uM) was 4.32%. The inhibition at 2.5 µM (Plasmodium falciparum, Pop E-F8 replicate 1, M-833 2.5 uM) was 11.8%, the inhibition at 5 µM (Plasmodium falciparum, Pop E-F8 replicate 1, M-833 5 uM) was 18.8% and the inhibition at 10 µM (Plasmodium falciparum, Pop E-F8 replicate 1, M-833 10 uM) was 41%. The pEC50 (Plasmodium falciparum, read-out: EC50 (95% confidence interval)) was under 5.00, the “Normalised to DMSO” value (Pop E-F8 replicate 1, M-833 0.0390625 uM) was 101.305 and the “Normalised to DMSO” value (Pop E-F8 replicate 1, M-833 0.078125 uM) was 101.672. For the same compound, the “Normalised to DMSO” value (Pop E-F8 replicate 1, M-833 0.15625 uM) was 98.0669, the “Normalised to DMSO” value (Pop E-F8 replicate 1, M-833 0.3125 uM) was 96.9165 and the “Normalised to DMSO” value (Pop E-F8 replicate 1, M-833 0.625 uM) was 96.6437. The “Normalised to DMSO” value (Pop E-F8 replicate 1, M-833 1.25 uM) was 95.6831, the “Normalised to DMSO” value (Pop E-F8 replicate 1, M-833 2.5 uM) was 88.1997 and the “Normalised to DMSO” value (Pop E-F8 replicate 1, M-833 5 uM) was 81.2026. For the same compound, the “Normalised to DMSO” value (Pop E-F8 replicate 1, M-833 10 uM) was 58.9777.
